Measurements taken from PMC5905287, “Synthesis and in vitro biochemical evaluation of oxime bond-linked daunorubicin–GnRH-III conjugates developed for targeted drug delivery” (Beilstein Journal of Organic Chemistry, 2018).
Like-named read-outs stand apart in the source and are kept apart here. Non-standard residues stand in square brackets, D forms with d. Residues, ends and D or L forms follow the SMILES beside them. *: point of attachment. Daunorubicin(13-NOCH2CO) = COc1cccc2c1C(=O)c1c(O)c3c(c(O)c1C2=O)C[C@@](O)(C(C)=NOCC(=O)*)C[C@@H]3O[C@H]1C[C@H](N)[C@H](O)[C@H](C)O1; pGlu = O=C1CC[C@@H](C(=O)O)N1; Butyryl = CCCC(=O)*

Experiments:
[1] = test system: MCF-7 human breast cancer cell line; test: In vitro cytostatic effect, alamarBlue assay, MCF-7; assay type: cell-based; conditions: MCF-7, 10 µM
From the text: (§1) Cell lines often function as the first model system of choice to study biological processes or to test the efficiency of drugs or drug conjugates and their cytotoxic effects. Immortal cell lines offer various benefits, for instance they are easy to handle, cost-effective and provide consistent sample and reproducible results. Nevertheless, cell lines also present the disadvantage that after a period of continuous growth, cell characteristics can change and dedifferentiate in culture. The serial passaging can cause genotypic and phenotypic variations and the state of confluency can also affect gene expression pattern in some cell lines. Due to this, the usage of internal standards during the evaluation of new potential candidates might be necessary to ensure comparability with previous results. The cytostatic effect of the novel GnRH-III bioconjugates was determined on HT-29 human colon cancer and MCF-7 human breast cancer cell lines by alamarBlue® assay. For a better comparison, the well-studied bioconjugates GnRH-III–[^8Lys(Dau=Aoa)] (K1) and GnRH-III–[^4Lys(Bu), ^8Lys(Dau=Aoa)] (K2) were used as positive controls and internal standards. The corresponding IC50 values were calculated by using nonlinear regression (sigmoidal dose response) (Figure 3, Table 2). Unfortunately, the D-Trp containing compounds 3 and 6 started to precipitate in both cell culture media at higher concentrations limiting the concentration down to a maximum of 10 µM. This effect could not be prevented by using DMSO instead of ddH2O for the preparation of the stock solutions. Unfortunately, the lower concentration range with a maximum of 10 µM was not sufficient to achieve the dose-response. […] Nevertheless, the replacement of ^6Asp by D-Asp, D-Glu or D-Trp led to a decreased cytostatic effect on the estimated cancer cell lines.
(§2) MCF-7 human breast adenocarcinoma cells were cultured in Dulbecco’s Modified Eagle Medium (DMEM, Lonza, Basel, Switzerland), supplemented with 10% (v/v) fetal bovine serum (FBS, Lonza), L-glutamine (2 mM, Lonza), non-essential amino acids (NEAA, Sigma-Aldrich Kft), sodium pyruvate (1 mM, Lonza) and penicillin-streptomycine (Lonza). […]
(§3) Cells were seeded to 96-well plates (Sarstedt, Nümbrecht, Germany, 5 × 10^3 cells/well) one day prior to the treatment in complete cell medium. […] Fluorescence was detected using Synergy H4 multi-mode microplate reader (BioTek, Winooski, VT, USA), excitation and emission wavelengths were set to 570 and 620 nm, respectively. Cytostasis was measured using 4 parallels, each experiment was repeated twice. Cytostatic effect (and IC50 values) were calculated by using nonlinear regression (sigmoidal dose response) with Origin Pro8 (OriginLab Corp., Northampton, MA, USA.).

[2] = test system: HT-29 human colon cancer cell line; test: In vitro cytostatic effect, alamarBlue assay, HT-29; assay type: cell-based; conditions: HT-29, 10 µM
From the text: as §1, §2, §3

[3] = Degradation in rat liver lysosomal homogenate (LC-MS); assay type: in vitro ADME; conditions: rat liver lysosomal homogenate, 37 °C, pH 5
Experimental: In order to gain insight into the cellular release of the drug, the degradation of the Dau–GnRH-III derivatives 1–6, K1 and K2 was determined in the presence of rat liver lysosomal homogenate at 37 °C. […] However, the degradation level and the cleavage sites within the GnRH-III sequence differ considerably depending on the incorporated amino acids, whereby the hydrolyses of the C-terminus (H-Gly-NH2 and H-Pro-Gly-NH2) occurred first in all eight GnRH-III derivatives. Due to the high chemical and enzymatic stability of the oxime bond, no free Dau was detected by LC–MS. In accordance with our previous results, the digestion of the two peptides containing L-Asp in position 6 (K1, K2) provided the smallest Dau-containing metabolite (H-Lys(Dau=Aoa)-OH, m/z 729.36 [M + H]^+). This metabolite could already be detected after 1 hour of incubation in case of K2 and after 2 hours in case of K1. […] It might be assumed that D-Trp of GnRH-III–[^4Lys(Bu), ^6D-Tpr, ^8Lys(Dau=Aoa)] (6) is also accepted at the cleavage site, but due to the prior hydrolysis of the ^7Trp-^8Lys(Dau=Aoa)-bond an evidential fragment has not been detected. A reason for these diversities might be the subsite specificities of the lysosomal proteases. For instance, lysosomal cysteine proteases also known as cathepsins show a broad substrate specificity. […] For instance, the analyzed fragments of the ^6L-Asp derivatives gave clear hints for the presence of endopeptidases, while the digestion of the ^6D-Aaa compounds 1–3 gave only fragments which evidence the activity of exomono- and/or dipeptidases. Moreover, the obtained results for the bioconjugates that contain ^4Lys(Bu) (K2, 4–6) instead of serine indicate a proteolytic cleavage by lysosomal endopeptidases, which might be of great importance for the release of the smallest Dau-containing metabolite.
The rat liver lysosomal homogenate was prepared as previously described. The protein concentration was determined by Qubit Protein Assay Kit according to the manufacturer’s protocol (ThermoFisher Scientific, Waltham, MA, USA). The bioconjugates were dissolved in ddH2O to a concentration of 5 µg/µL. The reaction was carried out in 0.2 M NaOAc buffer (pH 5), with an identical concentration of bioconjugate and rat liver lysosomal homogenate (0.25 µg/µL). The reaction mixtures were incubated at 37 °C and aliquots of 15 µL were taken at 5 min, 1 h, 2 h, 4 h, 8 h and 24 h and quenched with 2 µL of acetic acid. The analysis of the samples was performed by LC–MS.

[4] = design: method as in PMID 20953647, PMID 21668011; conditions: 90% human serum, 37 °C; ref [26],[38]; cited from earlier work
trypsin = test system: trypsin; design: method as in PMID 20953647, PMID 21668011; conditions: 37 °C; ref [26],[38]; cited from earlier work
GnRH-RI [5] = biological target: T1, GnRH-RI (Homo sapiens, UniProt P30968); design: method as in PMID 22967796, PMID 25908176; conditions: human pituitary tissue; ref [29],[50]; read-out: IC50 pituitary (reported values); cited from earlier work
T1 sequence (P30968 1-328): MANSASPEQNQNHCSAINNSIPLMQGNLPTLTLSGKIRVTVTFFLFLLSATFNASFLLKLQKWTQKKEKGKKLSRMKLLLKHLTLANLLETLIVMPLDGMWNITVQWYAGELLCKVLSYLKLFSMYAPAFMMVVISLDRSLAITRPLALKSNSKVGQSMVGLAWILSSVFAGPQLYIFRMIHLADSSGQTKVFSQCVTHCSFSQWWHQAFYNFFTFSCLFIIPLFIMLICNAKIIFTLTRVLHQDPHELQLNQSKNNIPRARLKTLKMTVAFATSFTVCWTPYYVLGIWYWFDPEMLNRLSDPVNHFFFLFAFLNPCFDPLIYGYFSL

GnRH-RI [6] = biological target: T1, GnRH-RI; design: human prostate cancer cells were obtained from a patient at the time of initial surgical treatment; from tissue; host or cells: human prostate cancer specimen from a patient (surgery); membrane homogenate; method as in PMID 22967796, PMID 25908176; conditions: human prostate cancer tissue; ref [29],[50]; read-out: IC50 prostate cancer (reported values); cited from earlier work
GnRH-receptor = test system: GnRH-receptor; design: method as in PMID 10647698, PMID 20859992; conditions: 1 pM to 1 µM; ref [51]–[52]; cited from earlier work

Molecule: COc1cccc2c1C(=O)c1c(O)c3c(c(O)c1C2=O)C[C@@](O)(C(C)=NOCC(=O)NCCCC[C@H](NC(=O)[C@H](Cc1c[nH]c2ccccc12)NC(=O)[C@@H](Cc1c[nH]c2ccccc12)NC(=O)[C@H](Cc1c[nH]cn1)NC(=O)[C@H](CO)NC(=O)[C@H](Cc1c[nH]c2ccccc12)NC(=O)[C@H](Cc1c[nH]cn1)NC(=O)[C@@H]1CCC(=O)N1)C(=O)N1CCC[C@H]1C(=O)NCC(N)=O)C[C@@H]3O[C@H]1C[C@H](N)[C@H](O)[C@H](C)O1 [compound 3, [6D-Trp, 8Lys(Dau=Aoa)]] ([pGlu]HWSH[dW]WK(Daunorubicin(13-NOCH2CO))PG-NH2)
- cell viability at the highest concentration [1]: 69%
- cell viability at the highest concentration [2]: 58%
- incubation time after which the smallest Dau-containing metabolite H-Lys(Dau=Aoa)-OH was detected [3]: 4 h

Molecule: CCCC(=O)NCCCC[C@H](NC(=O)[C@H](Cc1c[nH]c2ccccc12)NC(=O)[C@H](Cc1c[nH]cn1)NC(=O)[C@@H]1CCC(=O)N1)C(=O)N[C@@H](Cc1c[nH]cn1)C(=O)N[C@H](Cc1c[nH]c2ccccc12)C(=O)N[C@@H](Cc1c[nH]c2ccccc12)C(=O)N[C@@H](CCCCNC(=O)CON=C(C)[C@]1(O)Cc2c(O)c3c(c(O)c2[C@@H](O[C@H]2C[C@H](N)[C@H](O)[C@H](C)O2)C1)C(=O)c1c(OC)cccc1C3=O)C(=O)N1CCC[C@H]1C(=O)NCC(N)=O [compound 6, GnRH-III–[^4Lys(Bu), ^6D-Tpr, ^8Lys(Dau=Aoa)]] ([pGlu]HWK(Butyryl)H[dW]WK(Daunorubicin(13-NOCH2CO))PG-NH2)
- cell viability at the highest concentration [1]: 53%
- cell viability at the highest concentration [2]: 55%
- incubation time after which the smallest Dau-containing metabolite H-Lys(Dau=Aoa)-OH was detected [3]: 2 h

Molecule: GnRH-III–[^4Lys(Ac), ^8Lys(Dau=Aoa)]
- time stable in human serum [4]: at least 24 h
- time stable in trypsin (trypsin): at least 24 h

Molecule: GnRH-II–[D-Lys^6(Dau=Aoa)] (QHWSHKWYPG; N-terminal pyroglutamate (from Gln1); D-Lys at position 6, with daunorubicin oxime-linked through aminooxyacetyl on its epsilon-amine (Dau=Aoa); C-terminal amide; Decapeptide limits by convention (mat) [earlier reported daunorubicin–GnRH-II conjugate]
- IC50 (GnRH-RI [5]): 4.2 nM
- IC50 (GnRH-RI [6]): 2.1 nM

Molecule: bombesin
- displacement of [125I]-triptorelin (GnRH-receptor): could not inhibit the receptor binding

Molecule: buserelin
- displacement of [125I]-triptorelin (GnRH-receptor): displaced [^125I]-triptorelin completely

Molecule: cetrorelix
- displacement of [125I]-triptorelin (GnRH-receptor): displaced [^125I]-triptorelin completely

Molecule: somatostatin-14
- displacement of [125I]-triptorelin (GnRH-receptor): could not inhibit the receptor binding
